Measurements published in patent US20200299328A1, “POLYPEPTIDE WITH FUNCTION OF INHIBITING ABETA 42 PROTEIN AGGREGATION AND USE THEREOF, AND GENE ENCODING THE POLYPEPTIDE” (SOUTH CHINA UNIVERSITY OF TECHNOLOGY, priority 2018, published 2020).

Test system: Aβ42 protein aggregation in HEK-293-Aβ42-mCherry cells
Assay: Activity experiment of inhibiting Aβ42 protein aggregation in vitro (IncuCyte Zoom live cell imaging, tetracycline induction)
Assay type: cell-based
Conditions: compared with model group, 72 hours after tetracycline, p<0.01 (FIG. 5)
Excerpt: In the specific embodiments, in an application process of the polypeptide with the function of inhibiting Aβ42 protein aggregation according to the present invention, a mechanism of inhibiting AD senile plaque by the polypeptide is first researched through a visual in-vitro cell model test. Specifically, an amino acid sequence of a core component of senile plaque—an Aβ42 protein (the 22nd amino acid in a sequence of 42 amino acids—glutamic acid is mutated into glycine) is stably transferred into HEK-293 cells, so that it is stably expressed in the HEK-293 cells to form a cell model of abnormal Aβ protein aggregation, and then tetracycline is added to induce the Aβ protein to form a red fluorescent protein and emit red fluorescent light for positioning and quantifying the expression of the Aβ42 protein; and then, the polypeptide with the function of inhibiting Aβ42 protein aggregation according to the present invention is added, and a HEK293 cell model transfected with an Aβ42-red fluorescent labeling gene is used for evaluation, thus proving that the polypeptide has a remarkable activity of inhibiting Aβ42 protein aggregation. […]

## Pro-Pro-Lys-Asn-Trp (PPLAT) [PW-5]
PW-5 high-dose group 0.5 mM, effect more significant than low-dose group
  Aβ42 protein aggregation rate: significantly reduced
PW-5 low-dose group 0.05 mM
  Aβ42 protein aggregation rate: significantly reduced
